Assay results: ChEMBL document CHEMBL1201862, “PubChem BioAssay data set” (2004)
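Growth conditions: 96-well plates. Treatment: test compound, 48 hours, 5 concentrations. Analysis: linear interpolation between bracketing concentrations; unreached endpoints set to highest concentration. At the GI50, growth is halved.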 Activity calls are given as the source filed them. No stated cut-off is given here; in the data, active = GI50 up to about 1.1 µM and inactive = higher.

Tests used:
Assay in all cases: NCI anticancer screen, dose series, 48 h
TK-10 = tested on: TK-10
SK-OV-3 = tested on: SK-OV-3
SK-MEL-5 = tested on: SK-MEL-5
SNB-75 = tested on: SNB-75
SF-295 = tested on: SF-295
UO-31 = tested on: UO-31
UACC-62 = tested on: UACC-62
SN12C = tested on: SN12C
HCT-116 = tested on: HCT-116
786-0 = tested on: 786-0
PC-3 = tested on: PC-3
OVCAR-5 = tested on: OVCAR-5
SK-MEL-28 = tested on: SK-MEL-28
MOLT-4 = tested on: MOLT-4
IGROV-1 = tested on: IGROV-1
DU-145 = tested on: DU-145
M14 = tested on: M14
RPMI-8226 = tested on: RPMI-8226
A498 = tested on: A498
HOP-62 = tested on: HOP-62
OVCAR-4 = tested on: OVCAR-4
SW-620 = tested on: SW-620
CAKI-1 = tested on: CAKI-1
HCC 2998 = tested on: HCC 2998
HL-60 = tested on: HL-60
SF-539 = tested on: SF-539
MCF7 = tested on: MCF7
MDA-N = tested on: MDA-N
COLO 205 = tested on: COLO 205
BT-549 = tested on: BT-549
KM12 = tested on: KM12
ACHN = tested on: ACHN
HCT-15 = tested on: HCT-15
NCI-H522 = tested on: NCI-H522
SF-268 = tested on: SF-268
NCI-H226 = tested on: NCI-H226
OVCAR-8 = tested on: OVCAR-8
U-251 = tested on: U-251
NCI/ADR-RES = tested on: NCI/ADR-RES
UACC-257 = tested on: UACC-257
SK-MEL-2 = tested on: SK-MEL-2
Malme-3M = tested on: Malme-3M
CCRF-CEM = tested on: CCRF-CEM
Hs-578T = tested on: Hs-578T
MDA-MB-435 = tested on: MDA-MB-435
SNB-19 = tested on: SNB-19
HT-29 = tested on: HT-29
T47D = tested on: T47D
A549 = tested on: A549
MDA-MB-231 = tested on: MDA-MB-231
NCI-H23 = tested on: NCI-H23
OVCAR-3 = tested on: OVCAR-3
EKVX = tested on: EKVX
NCI-H460 = tested on: NCI-H460
RXF 393 = tested on: RXF 393
LOX IMVI = tested on: LOX IMVI
HOP-92 = tested on: HOP-92

Measured: GI50

Cc1[nH]c2ncn3nc(C(Cl)(Cl)Cl)nc3c2c1Cc1ccccc1
> 100 µM: HCT-15
inactive: TK-10 > 100 µM | SK-OV-3 > 100 µM | SK-MEL-5 > 100 µM | SNB-75 > 100 µM | SF-295 > 100 µM | UO-31 10.5 µM | UACC-62 > 100 µM | SN12C > 100 µM | HCT-116 > 100 µM | 786-0 > 100 µM | PC-3 > 100 µM | OVCAR-5 > 100 µM | SK-MEL-28 > 100 µM | MOLT-4 > 100 µM | IGROV-1 > 100 µM | DU-145 > 100 µM | M14 > 100 µM | RPMI-8226 > 100 µM | A498 > 100 µM | HOP-62 > 100 µM | OVCAR-4 > 100 µM | SW-620 > 100 µM | CAKI-1 > 100 µM | HCC 2998 > 100 µM | HL-60 > 100 µM | SF-539 > 100 µM | MCF7 > 100 µM | MDA-N > 100 µM | COLO 205 > 100 µM | BT-549 > 100 µM | KM12 > 100 µM | ACHN > 100 µM | NCI-H522 > 100 µM | SF-268 > 100 µM | NCI-H226 > 100 µM | OVCAR-8 > 100 µM | U-251 > 100 µM | NCI/ADR-RES > 100 µM | UACC-257 > 100 µM | SK-MEL-2 > 100 µM | Malme-3M > 100 µM | CCRF-CEM > 100 µM | Hs-578T > 100 µM | MDA-MB-435 > 100 µM | SNB-19 > 100 µM | HT-29 > 100 µM | T47D > 100 µM | A549 > 100 µM | MDA-MB-231 > 100 µM | NCI-H23 > 100 µM | OVCAR-3 > 100 µM | EKVX > 100 µM | NCI-H460 > 100 µM | RXF 393 > 100 µM

COC(=O)[C@H](Cc1ccccc1)NC(=O)N(CCC#N)CCN(C(=O)N[C@@H](Cc1ccccc1)C(=O)OC)c1ccccc1
inactive: TK-10 20 µM | SK-OV-3 46.8 µM | SK-MEL-5 22.9 µM | SNB-75 17.5 µM | SF-295 33.8 µM | UO-31 17.6 µM | UACC-62 3.34 µM | SN12C 32.2 µM | HCT-116 28.1 µM | 786-0 9.2 µM | PC-3 32.1 µM | OVCAR-5 > 100 µM | SK-MEL-28 18.2 µM | MOLT-4 16.6 µM | IGROV-1 20.8 µM | DU-145 29.1 µM | M14 24.9 µM | RPMI-8226 21 µM | A498 23 µM | HOP-62 41.1 µM | OVCAR-4 23.6 µM | SW-620 35.1 µM | CAKI-1 20 µM | HCC 2998 28.2 µM | SF-539 20.8 µM | MCF7 38.5 µM | LOX IMVI 22.5 µM | MDA-N 17.5 µM | COLO 205 25 µM | BT-549 49.3 µM | HOP-92 18.7 µM | KM12 37.3 µM | ACHN 18.9 µM | SF-268 22.8 µM | NCI-H226 30 µM | OVCAR-8 37.8 µM | U-251 > 10 µM | NCI/ADR-RES > 100 µM | UACC-257 20 µM | SK-MEL-2 18.5 µM | CCRF-CEM 27.2 µM | Hs-578T 32.7 µM | MDA-MB-435 18.9 µM | SNB-19 49.5 µM | T47D 20.2 µM | A549 47.1 µM | MDA-MB-231 26.7 µM | NCI-H23 32.7 µM | OVCAR-3 19.9 µM | EKVX 29.5 µM | RXF 393 18.2 µM
38.5 µM: HCT-15
